# Experimental data taken from paper PMC7279249, “Synthesis of Fmoc-Triazine Amino Acids and Its Application in the Synthesis of Short Antibacterial Peptidomimetics” (International Journal of Molecular Sciences, 2020).
# Read-outs that look alike come from different tables or passages of the source. Peptide text beside a SMILES is read from it.
# Tests used:
# E. coli (KCTC 1682) = test system: E. coli (KCTC 1682)
# Experimental: (§1) The bacterial cells were grown overnight for 18 h at 37 °C in 10 mL of Mueller Hinton broth (MHB). The 10 μL of this culture was inoculated into 10 mL of fresh MHB and incubated for an additional 3 h at 37 °C to obtain mid-logarithmic phase organisms. Aliquots (100 μL) of bacterial cell suspension at 4 × 10^6 CFU/mL in 1% peptone were added to 100 μL of the sample solutions (serial 2-fold dilutions in 1% peptone). […] The MIC values were determined after 18 h of incubation.
# [1] = test system: P. aeruginosa (KCTC 1637)
# Experimental: as §1
# [2] = test system: Staphylococcus aureus (KCTC 1621)
# Experimental: as §1
# [3] = test system: Staphylococcus epidermidis (KCTC 1917)
# Experimental: as §1
# [4] = Analytical RP-HPLC retention time; format: physicochemical; details: C18 4.6 mm × 250 mm, 0.05% aq. TFA (A) / 0.05% TFA in CH3CN (B), 5% to 95% B in 30 min, 1.0 mL/min, 25 °C, 280 nm, method A of the Supplementary Material
# Experimental: As described previously, all reactions were performed under argon atmosphere in flame-dried glassware using dry solvents unless otherwise noted. Anhydrous organic solvents of purity greater than 99.9% were purchased from Aldrich and used directly in the reaction. All reagents and some of the starting materials were purchased from commercial chemical suppliers, including Sigma-Aldrich, TCI, and Across Organics and used as received. Analytical thin-layer chromatography (TLC) was performed on Merck aluminum sheets with silica gel 60 F254 using 0.25 mm plates, and was visualized by ultraviolet light, staining with KMnO4 and ninhydrin. Column chromatography purification was performed on Merck silica gel 60 (70–230 mesh or 230–400 mesh). Bruker DRX-400 and DRX-500 NMR spectrometer were used for recording ^1H and ^13C NMR spectra. NMR chemical shifts (δ) are denoted in parts per million (ppm), and coupling constants (J) are given in hertz (Hz). MALDI-TOF mass was recorded using Shimadzu mass spectrometer. The crude peptidomimetics and peptides were purified by reverse-phase high-performance liquid chromatography (RP-HPLC) on Agilent HPLC system equipped with a C18 semi-preparative column (250 mm × 22 mm, 10 μm) using 0.05% aq. trifluoroacetic acid (TFA) (eluent A) and 0.05% TFA in CH3CN (eluent B) were used with a flow rate of 5.0 mL/min at 25 °C, under wavelength 280 nm. Moreover, the purity of the peptide judged to be ≥ 95% pure by analytical HPLC equipped with a C18 column (4.6 mm× 250 mm, 10 μm). Two different linear gradients of 0.05% aq. TFA (eluent A) and 0.05% TFA in CH3CN (eluent B) (gradient method, 5% of eluent B to 95% of Eluent B in 30 min; injection volume, 10 µL; concentration 10 µmol) were used with a flow rate of 1.0 mL/min at 25 °C, under wavelength 280 nm.
# [5] = test system: trypsin (read-out E. coli KCTC 1682); format: in vitro ADME
# Experimental: (§2) Digestion of the BJK-4 and melittin by trypsin was carried out using 100 μg/mL peptide and 0.4 μg/mL trypsin in PBS, at 37 °C for 2 h. The reaction solution (50 μL) was added to 150 μL of a bacterial suspension (2 × 10^6 CFU/mL in Mueller-Hinton broth). After incubation at 37 °C for 18 h, the bacterial growth inhibition was determined by measuring absorbance at 600 nm with a microplate ELISA reader (Bio-Tek; EL 800).
# [6] = test system: trypsin (read-out S. aureus KCTC 1621); format: in vitro ADME
# Experimental: as §2
# [7] = Gram-negative, serial 2-fold dilutions in 1% peptone, 1 to […], 18 h incubation, lowest concentration causing 100% inhibition of growth (no visible turbidity)
# [8] = Gram-positive, serial 2-fold dilutions in 1% peptone, 1 to […], 18 h incubation, lowest concentration causing 100% inhibition of growth (no visible turbidity)
SMILES,"MIC, E. coli (KCTC 1682) (E. coli (KCTC 1682); KCTC 1682, 18 h) [µg/mL]","MIC, P. aeruginosa (KCTC 1637) ([1]; KCTC 1637, 18 h) [µg/mL]","MIC, Staphylococcus aureus (KCTC 1621) ([2]; KCTC 1621, 18 h) [µg/mL]","MIC, Staphylococcus epidermidis (KCTC 1917) ([3]; KCTC 1917, 18 h) [µg/mL]","Rt, HPLC retention time [4] [min]",Antimicrobial activity against E. coli after trypsin treatment [5],Antimicrobial activity against S. aureus after trypsin treatment [6],"MIC, E. coli (KCTC 1682) (E. coli (KCTC 1682); [7]) [µg/mL]","MIC, P. aeruginosa (KCTC 1637) [1, 7] [µg/mL]","MIC, Staphylococcus aureus (KCTC 1621) [2, 8] [µg/mL]","MIC, Staphylococcus epidermidis (KCTC 1917) [3, 8] [µg/mL]","Antimicrobial activity against E. coli after trypsin treatment ([5]; 100 μg/mL peptide, 0.4 μg/mL trypsin in PBS, 37 °C, 2 h, then E. coli KCTC 1682 in Mueller-Hinton broth, 18 h at 37 °C, absorbance 600 nm)","Antimicrobial activity against S. aureus after trypsin treatment ([6]; 100 μg/mL peptide, 0.4 μg/mL trypsin in PBS, 37 °C, 2 h, then S. aureus KCTC 1621 in Mueller-Hinton broth, 18 h at 37 °C, absorbance 600 nm)"
CC(=O)NCCNc1nc(NCC(N)=O)nc(N(CCCN)CCCN)n1 [BJK-1],128,128,>128,>128,8.8,,,,,,,,
CC(=O)NCCNc1nc(NCC(N)=O)nc(N(Cc2ccccc2)Cc2ccccc2)n1 [BJK-2],>128,>128,>128,>128,21.8,,,,,,,,
CC(=O)NCCNc1nc(NCC(=O)NCCNc2nc(NCC(N)=O)nc(N(Cc3ccccc3)Cc3ccccc3)n2)nc(N(CCCN)CCCN)n1 [BJK-3],64,32,32,32,,,,,,,,,
CC(=O)NCCNc1nc(NCC(=O)NCCNc2nc(NCC(=O)NCCNc3nc(NCC(N)=O)nc(N(CCCN)CCCN)n3)nc(N(Cc3ccccc3)Cc3ccccc3)n2)nc(N(CCCN)CCCN)n1 [BJK-4],16,16,16,16,,nearly preserved,nearly preserved,,,,,,
CC(=O)NCCNc1nc(NCC(=O)NCCNc2nc(NCC(=O)NCCNc3nc(NCC(N)=O)nc(N(Cc4ccccc4)Cc4ccccc4)n3)nc(N(CCCN)CCCN)n2)nc(N(Cc2ccccc2)Cc2ccccc2)n1 [BJK-5],128,32,64,64,21.1,,,,,,,,
CC(=O)NCCNc1nc(NCC(=O)NCCNc2nc(NCC(=O)NCCNc3nc(NCC(=O)NCCNc4nc(NCC(N)=O)nc(N(Cc5ccccc5)Cc5ccccc5)n4)nc(N(CCCN)CCCN)n3)nc(N(Cc3ccccc3)Cc3ccccc3)n2)nc(N(CCCN)CCCN)n1 [BJK-6],,,,,,,,16,16,16,16,,
CC(=O)N[C@@H](CCCCN)C(=O)N[C@@H](Cc1c[nH]c2ccccc12)C(N)=O [BJK-7] (Ac-Lys-Trp-NH2),128,128,>128,>128,15.4,,,,,,,,
CC(=O)N[C@@H](CCCCN)C(=O)N[C@@H](Cc1c[nH]c2ccccc12)C(=O)N[C@@H](CCCCN)C(N)=O [BJK-8] (Ac-Lys-Trp-Lys-NH2),64,128,>128,>128,14.2,,,,,,,,
CC(=O)N[C@@H](Cc1c[nH]c2ccccc12)C(=O)N[C@@H](CCCCN)C(=O)N[C@@H](Cc1c[nH]c2ccccc12)C(N)=O [BJK-9] (Ac-Trp-Lys-Trp-NH2),>128,>128,>128,>128,19.6,,,,,,,,
CC(=O)N[C@@H](CCCCN)C(=O)N[C@@H](Cc1c[nH]c2ccccc12)C(=O)N[C@@H](CCCCN)C(=O)N[C@@H](Cc1c[nH]c2ccccc12)C(N)=O [BJK-10] (Ac-KWKW-NH2),,,,,17.9,,,>128,>128,>128,>128,,
"CC[C@H](C)[C@H](NC(=O)CN)C(=O)NCC(=O)N[C@@H](C)C(=O)N[C@H](C(=O)N[C@@H](CC(C)C)C(=O)N[C@@H](CCCCN)C(=O)N[C@H](C(=O)N[C@@H](CC(C)C)C(=O)N[C@H](C(=O)N[C@H](C(=O)NCC(=O)N[C@@H](CC(C)C)C(=O)N1CCC[C@H]1C(=O)N[C@@H](C)C(=O)N[C@@H](CC(C)C)C(=O)N[C@H](C(=O)N[C@@H](CO)C(=O)N[C@@H](Cc1c[nH]c2ccccc12)C(=O)N[C@H](C(=O)N[C@@H](CCCCN)C(=O)N[C@@H](CCCNC(=N)N)C(=O)N[C@@H](CCCCN)C(=O)N[C@@H](CCCNC(=N)N)C(=O)N[C@@H](CCC(N)=O)C(=O)N[C@@H](CCC(N)=O)C(N)=O)[C@@H](C)CC)[C@@H](C)CC)[C@@H](C)O)[C@@H](C)O)C(C)C)C(C)C [melittin, reference compound]",,,,,,,,,,,,completely abolished,completely abolished
